From US11878074B2, “Methods of use of emulsion formulations of an NK-1 receptor antagonist” (Heron Therapeutics, Inc., priority 2016, dated 2024)

Test: Pharmacokinetics of aprepitant emulsion, intravenous injection, plasma LC-MS/MS
Type: in vivo, Sprague-Dawley rats
Details: rat, i.v., equivalent to 14 mg/kg aprepitant, by the 3-hour time point
Procedure: Blood from all rats was collected at the appropriate time intervals and processed to plasma by centrifugation. Plasma samples were analyzed by LC-MS/MS for aprepitant and fosaprepitant, as appropriate. […] The curves indicate the initial aprepitant level reached immediately after injection of the aprepitant emulsion was almost 3 times higher than the initial aprepitant level reached immediately after injection of the fosaprepitant solution.

- Plasma levels of aprepitant, emulsion versus fosaprepitant solution: essentially the same
SMILES: C[C@@H](O[C@H]1OCCN(Cc2nc(O)n(P(=O)(O)O)n2)[C@H]1c1ccc(F)cc1)c1cc(C(F)(F)F)cc(C(F)(F)F)c1 [fosaprepitant]
